Assay results: patent US20060252814A1, “Formulation comprising a betablocker and optionally a cholestrol-lowering agent” (AstraZeneca AB, priority 2000, published 2006)

Key:
[1] = Metabolic and physiological effects of treatment in the clinical trial; assay type: in vivo, human
Procedure: A large scale clinical trial was designed to investigate the effect of low dose betablocker metoprolol on the progression of carotid IMT versus placebo and clinical outcome measures during 36 months double-blind treatment in asymptomatic subjects with a carotid plaque. The study was a randomized, double blind, parallel group, placebo-controlled, single-center study. The randomization procedure was performed by using a computer generated randomization scheme. Participants were, according to a factorial design, randomly assigned to one of four drug combination groups: placebo/placebo, metoprolol (25 mg o.d)/placebo, fluvastatin (40 mg o.d.)/placebo or metoprolol (25 mg o.d.)/fluvastatin (40 mg o.d.). The placebo was manufactured to exactly resemble the metoprolol CR/XL tablets (AstraZeneca AB, […] , Sweden), and fluvastatin (Novartis Ltd, Basel, Switzerland) capsules, respectively. Every participant was seen four times during the first year (after one, three, six and twelve months) and every 6 months thereafter. Weight was obtained every six months and a fasting lipid profile (total cholesterol, LDL-lipoprotein, HDL-lipoprotein and triglycerides) was determined every year. Liver transaminases (AST, ALT) and creatine kinase (CK) were obtained at every visit during the first year and then every year thereafter. AST or ALT values ≧3 times, and CK values ≧10 times the upper limit of normal was considered elevated during the study. Carotid ultrasound investigation was performed at baseline and after 18 and 36 months treatment.

[2] = tested on: carotid bulb intima-media thickness in asymptomatic subjects with a carotid plaque; assay: Carotid ultrasound, change in maximum intima-media thickness (IMTmax) in the carotid bulb (bifurcation), 36 months double-blind placebo-controlled trial; assay type: in vivo, human; details: for Bifurcation carotid IMTmean, Δ 18 months to baseline (± SD) / Bifurcation carotid IMTmean, Δ 36 months to baseline (± SD): mean change; for Bifurcation carotid IMTmean, 18 months (± SD): mean value at 18 months follow-up; for Bifurcation carotid IMTmean, 36 months (± SD): mean value at 36 months follow-up; for Bifurcation carotid IMTmean, Δ between groups at 36 months (95% CI): versus placebo
From the text: (§1) The study population consisted of asymptomatic men and women, aged 49 to 70 years, with a plaque in the right carotid artery. A random 50% of those who entered the study were invited to take part in a study on the epidemiology of carotid artery disease. 1548 subjects came to the enrolment examination (visit one) including medical history, physical examination, laboratory measurements and a two-dimensional B-mode ultrasound of the right carotid artery. Subjects with a qualifying lesion in the right carotid artery, and who had no contraindications to the study protocol were invited to take part. In all, 793 subjects were eligible for randomization. All participants provided written informed consent Major exclusion criteria were history of myocardial infarction, angina pectoris or stroke within the preceding three months, history of surgical intervention in the right carotid artery, regular use of beta-blockers or stating, blood pressure above 160 systolic or 95 mm Hg diastolic, hypercholesterolemia (>8.0 mmol/L), hyperglycemia requiring or suspected to require insulin treatment, and conditions which in the opinion of the investigator rendered the subject unsuitable for the trial. […] Death and incidence of major cardiovascular endpoints were monitored. […] Throughout the trial an Acuson 128 […] (Acuson, Mountain View, Calif.) with a 7 MHz transducer was used. The examination procedure and image analysis, as described elsewhere ([…] et al., Clin Physiol, 11:565-577, 1991; […] et al., Stroke, 28:2195-2200, 1997) was performed by specially trained sonographers certified upon completion of an extensive educational program (Berglund, et al., J Intern Med, 236:581-586, 1994). In brief, the right carotid bifurcation was scanned within a pre-defined window comprising three centimeters of the distal common carotid artery, the bifurcation and one centimeter of the internal and external carotid arteries, respectively, for the presence of plaques, defined as focal intima-media thickenings above 1.2 mm. Thickness of the intima-media complex was measured in the far wall according to the leading edge principle, using a specially designed computer-assisted image analyzing system based on automated detection of the echo structures, but with the option to make manual corrections by the operator. Each image was analyzed without knowledge of the subjects' randomization group. From previous experience (Furberg et al., Circulation, 90:1679-1687, 1994) it was anticipated that the annual carotid artery […] progression rate in the placebo group would be approximately 15 μm per year with a standard deviation of 30 μm. […] The primary effect variables, change in […], and […] Bulb, was analyzed in a linear model with change in IMT as dependent variable and with treatment as a factor. Baseline IMTs and time between measurements were included in the model as covariates.

[3] = human, in vivo, 36 months
Procedure: A large scale clinical trial was designed to investigate the effect of low dose betablocker metoprolol on the progression of carotid IMT versus placebo and clinical outcome measures during 36 months double-blind treatment in asymptomatic subjects with a carotid plaque. The study was a randomized, double blind, parallel group, placebo-controlled, single-center study.
The randomization procedure was performed by using a computer generated randomization scheme. Participants were, according to a factorial design, randomly assigned to one of four drug combination groups: placebo/placebo, metoprolol (25 mg o.d)/placebo, fluvastatin (40 mg o.d.)/placebo or metoprolol (25 mg o.d.)/fluvastatin (40 mg o.d.). The placebo was manufactured to exactly resemble the metoprolol CR/XL tablets (AstraZeneca AB, Mölndal, Sweden), and fluvastatin (Novartis Ltd, Basel, Switzerland) capsules, respectively.
Safety and tolerability pattern during treatment with fluvastatin or metoprolol, was evaluated by comparing adverse events and laboratory findings to placebo. Death and incidence of major cardiovascular endpoints were monitored.
Every participant was seen four times during the first year (after one, three, six and twelve months) and every 6 months thereafter. Weight was obtained every six months and a fasting lipid profile (total cholesterol, LDL-lipoprotein, HDL-lipoprotein and triglycerides) was determined every year. Liver transaminases (AST, ALT) and creatine kinase (CK) were obtained at every visit during the first year and then every year thereafter. AST or ALT values ≧3 times, and CK values ≧10 times the upper limit of normal was considered elevated during the study. […] Subjects with high serum cholesterol or triglycerides were advised to a low-fat diet and if evidence of persistent high cholesterol values such subjects were referred to an independent specialist of lipid disorders without knowledge of the subjects randomization assignment. […]

[4] = tested on: common carotid artery intima-media thickness in asymptomatic subjects with a carotid plaque; assay: Carotid ultrasound, change in mean intima-media thickness (IMTmean) in the common carotid artery, 36 months double-blind placebo-controlled trial; assay type: in vivo, human; details: for Common carotid IMTmean, Δ 18 months to baseline (± SD) / Common carotid IMTmean, Δ 36 months to baseline (± SD): mean change; for Common carotid IMTmean, 18 months (± SD): mean value at 18 months follow-up, metoprolol 25 mg o.d. / fluvastatin 40 mg o.d., factorial groups; for Common carotid IMTmean, 36 months (± SD): mean value at 36 months follow-up; for Common carotid IMTmean, Δ between groups at 36 months (95% CI): versus placebo
From the text: as §1

[5] = tested on: cardiovascular (CVD) events in asymptomatic subjects with a carotid plaque; assay: Incidence of cardiovascular events during follow-up; assay type: in vivo, human; details: metoprolol versus 13 cases placebo, p=0.055; fluvastatin versus 11 cases placebo, p=0.350
From the text: Death and incidence of major cardiovascular endpoints were monitored.

[6] = in comparison to the placebo group

| Compound | Bifurcation carotid IMTmean, Δ 18 months to baseline (± SD) [2] [μm] | Bifurcation carotid IMTmean, Δ 36 months to baseline (± SD) [2] [μm] | Bifurcation carotid IMTmean, 18 months (± SD) [2] [μm] | Bifurcation carotid IMTmean, 36 months (± SD) [2] [μm] | Bifurcation carotid IMTmean, Δ between groups at 36 months (95% CI) [2] | Permanent withdrawal from randomized treatment [3] [%] | Common carotid IMTmean, Δ 18 months to baseline (± SD) [4] [μm] | Common carotid IMTmean, Δ 36 months to baseline (± SD) [4] [μm] | Common carotid IMTmean, 18 months (± SD) [4] [μm] | Common carotid IMTmean, 36 months (± SD) [4] [μm] | Common carotid IMTmean, Δ between groups at 36 months (95% CI) [4] | CVD events during follow-up [5] [cases] | further results |
| --- | --- | --- | --- | --- | --- | --- | --- | --- | --- | --- | --- | --- | --- |
| COCCc1ccc(OCC(O)CNC(C)C)cc1 (centres unmarked) [Metoprolol, metoprolol] | 23 ± 325 | 154 ± 411 | 1937 ± 572 | 2003 ± 624 | −73 (−133 to −13) μm | 15 | −5 ± 12 | 22 ± 13 | 908 ± 205 | 934 ± 220 | −2 (−20 to 17) μm | 5 | effect on other metabolic variables ([1]; compared to the placebo group): no effect; change of blood pressure [1, 6]: not significantly changed; change of lumen diameter [1, 6]: not significantly changed; decrease of mean heart rate in comparison to the placebo group ([1]; metoprolol 25 mg o.d.): 2.5 beats per min; increase of serum triglycerides compared to the placebo group ([1]; metoprolol 25 mg o.d.): 0.14 mmol/L; carotid IMTmaxBulb progression, mean difference of yearly change between groups ([2]; after 18 months of treatment, 95% CI −94 to −23, p=0.004): −58 μm; carotid IMTmaxBulb progression, mean difference of yearly change between groups ([2]; after 36 months, subgroup with serum cholesterol at baseline, 95% CI −87 to −19, p=0.001): −53 μm; carotid IMTmaxBulb progression, mean difference of yearly change between groups ([2]; compared with placebo after 36 months of treatment, 95% CI −44 to −3, p=0.014): −23 μm; reduced the rate of progression of IMTmean CCA compared with placebo ([4]; after 36 months of treatment, result in words): not |
| CC(C)n1c(/C=C/C(O)CC(O)CC(=O)O)c(-c2ccc(F)cc2)c2ccccc21 (centres unmarked) [Fluvastatin, fluvastatin] | 63 ± 334 | 170 ± 374 | 1965 ± 554 | 2095 ± 652 | −41 (−102 to 19) μm | 21 | −5 ± 11 | 11 ± 11 | 890 ± 196 | 905 ± 205 | −25 (−44 to −7) μm | 7 | frequency of transiently high liver enzymes ([3]; female): 10.2%; IMTmean CCA progression, mean difference of yearly change between groups ([4]; compared with placebo after 36 months of treatment, 95% CI −15 to −3, p=0.002): −9 μm |
